15 molecules from patent publication US10703756B2, “Pyrrolo[2,3-D]pyrimidinyl, pyrrolo[2,3-B]pyrazinyl, pyrrolo[2,3-B]pyridinyl acrylamides and epoxides thereof” (Pfizer Inc., priority 2015, dated 2020) can be followed below.

In test [1] the target is T1, JAK3 enzyme (Homo sapiens, UniProt P52333).
T1 sequence (P52333 1-1124): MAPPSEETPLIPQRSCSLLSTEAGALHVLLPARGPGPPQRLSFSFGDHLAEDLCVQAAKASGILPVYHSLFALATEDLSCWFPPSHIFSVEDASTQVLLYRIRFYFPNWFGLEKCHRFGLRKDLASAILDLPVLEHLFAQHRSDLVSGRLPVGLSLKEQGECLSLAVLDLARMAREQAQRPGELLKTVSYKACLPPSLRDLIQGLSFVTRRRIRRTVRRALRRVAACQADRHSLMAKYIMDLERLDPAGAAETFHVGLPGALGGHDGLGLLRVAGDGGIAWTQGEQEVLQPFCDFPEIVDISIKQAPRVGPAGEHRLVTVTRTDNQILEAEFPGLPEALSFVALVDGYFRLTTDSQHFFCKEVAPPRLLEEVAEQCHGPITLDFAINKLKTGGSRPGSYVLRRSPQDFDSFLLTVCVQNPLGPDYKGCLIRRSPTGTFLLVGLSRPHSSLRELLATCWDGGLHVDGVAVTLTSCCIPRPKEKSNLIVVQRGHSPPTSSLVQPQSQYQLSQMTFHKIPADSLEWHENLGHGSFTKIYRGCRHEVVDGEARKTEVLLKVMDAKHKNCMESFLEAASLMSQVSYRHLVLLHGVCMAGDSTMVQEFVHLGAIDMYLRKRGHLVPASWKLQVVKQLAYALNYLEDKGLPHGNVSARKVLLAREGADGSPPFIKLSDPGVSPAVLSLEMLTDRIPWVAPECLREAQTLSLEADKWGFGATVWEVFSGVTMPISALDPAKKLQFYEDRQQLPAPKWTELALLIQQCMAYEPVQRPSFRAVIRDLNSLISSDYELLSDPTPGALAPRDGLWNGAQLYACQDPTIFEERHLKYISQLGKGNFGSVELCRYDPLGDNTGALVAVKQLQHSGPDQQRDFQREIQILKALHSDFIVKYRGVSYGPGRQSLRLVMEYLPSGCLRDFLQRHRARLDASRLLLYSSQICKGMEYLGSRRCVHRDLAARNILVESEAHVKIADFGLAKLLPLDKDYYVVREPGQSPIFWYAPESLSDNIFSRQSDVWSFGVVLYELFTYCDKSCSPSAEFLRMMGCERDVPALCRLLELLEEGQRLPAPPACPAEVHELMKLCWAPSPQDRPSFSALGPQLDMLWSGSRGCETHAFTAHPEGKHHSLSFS
The test can be described thus: JAK Caliper Enzyme Assay at 4 μM ATP. The test is classed as biochemical. In outline:
(§1)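 Substrate conversion was kept within 20%-30% by adjusting enzyme and incubation for every preparation; peptide phosphorylation was quantified via on-chip mobility shift.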

Test [2] deals with T1, JAK3 enzyme. The test can be described thus: JAK Caliper Enzyme Assay at 1 mM ATP. The class given is biochemical. The procedure, abridged: as §1
In test [3] the test system is IL-15 induced P-STAT5 in human PBMC. The test can be described thus: PBMC IL-15 Induced P-STAT5. The test is classed as cell-based. To be noted: human PBMC, IL-15 final 41 ng/mL; read-out: PBMC IL15_pSTAT5_IC50. As to the method:
PBMC IL-15 Induced P-STAT5
Test compounds were serially diluted in DMSO, with further dilution of the compounds in RPMI 1640 medium (Invitrogen #72400) supplemented with 10 mM HEPES, pH 7.4, 1 mM sodium pyruvate, and Penicillin/Streptomycin (by adding 5 μL compound/DMSO in 120 μL Dulbecco's Phosphate-Buffered Saline (D-PBS, 1×), [DMSO]=4%, and mixing the solution by repeated pipetting, 6×). IL-15 was diluted to the concentration at 820 ng/mL in RPMI 1640 medium.
Frozen human PBMC (200-250 million cells/vial) was thawed at 37° C. The cells were transferred to 10 mL warm medium in a 50-mL conical tube, and centrifuged at 1,200 RPM at room temperature for 5 min. The supernatant was aspirated. Cells were suspended in 3 mL warm human plasma and incubated at 37° C. in a tissue culture incubator for 1.5 to 2 h. After adding 47 ml D-PBS (37° C.) to PBMC/FBS suspension, centrifuging at 1,200 RPM at room temperature for 5 min, and aspirating the supernatant, the cells were resuspended in 20 mL warm RPMI medium. Ninety μL of cell suspension were pipetted per well in a 96-well, deep-well, V-bottom plate, and the plate was incubated at 37° C. for 30 min. Five μL of compound were transferred to each well (final 0.2% DMSO), vortex gently and incubate at 37° C. for 15 min; 5 μL 4% DMSO/PBS were added to the control wells. After adding 5 μL 820 ng/mL of human IL-15 (final 41 ng/mL) to each well (5 μL PBS to the control wells), vortexing gently and incubating at 37° C. for 15 min, followed by 0.3 mL 1% paraformaldehyde/PBS (37° C.) to each well, and incubating the plate at room temperature for 15 min, the plates were centrifuged at 1,200 RPM (Beckman GS-6R or Sorvall Legend) at room temperature for 5 min, and the supernatant was aspirated using a 8-channel or 12-channel manifold. After adding 0.8 mL staining buffer per well, the plates were centrifuged at 1,200 RPM (Beckman GS-6R or Sorvall Legend) at room temperature for 5 min, and again the supernatant was aspirated using a 8-channel or 12-channel manifold. The plate was vortexed, and 0.35 mL 90% methanol/10% H2O (−20° C.) was added per well, and the plate incubated on ice for 20 min. After again adding 0.8 mL staining buffer per well, the plates were centrifuged at 1,200 RPM (Beckman GS-6R or Sorvall Legend) at room temperature for 5 min, and again the supernatant was aspirated using a 8-channel or 12-channel manifold, and then 0.8 mL Staining buffer was added per well. After once again adding 0.8 mL staining buffer per well, the plates were centrifuged at 1,200 RPM (Beckman GS-6R or Sorvall Legend) at room temperature for 5 min, and again the supernatant was aspirated using a 8-channel or 12-channel manifold. Then the plate was vortexed, and 250 μL/well of Alexa Fluor® 647 conjugated anti-STAT5 antibody ([…]; […]) was added, and the plate was incubated at 4° C. overnight in the dark. Samples of 250 μL/well were transferred to a 96-well U-bottom plate, and the FACS analysis was performed gating on total lymphocytes. Samples were analyzed using a BD Calibur™ or BD FACSCanto™ flow cytometer equipped with the BD High Throughput Sampler.

For the molecule `C=CC(=O)N1CC[C@H](Oc2cnc3[nH]cc(C(=O)NCC)c3n2)[C@@H](C)C1` (single isomer, unassigned) [Example 48], the IC50 was 49.1 nM against JAK3 enzyme [1], 3060 nM against JAK3 enzyme [2] and 6690 nM in test [3].

Take `C=CC(=O)N(C)C1CN(c2cnc3[nH]cc(C(=O)NCCOC)c3n2)C1` [Example 84, 2-{3-[acryloyl(methyl)amino]azetidin-1-yl}-N-(2-methoxyethyl)-5H-pyrrolo[2,3-b]pyrazine-7-carboxamide]: the IC50 on JAK3 enzyme [1] is 1.67 nM; on JAK3 enzyme [2], 329 nM; in test [3], 1220 nM.

`C=CC(=O)N1CCC(C)(Nc2cnc3[nH]cc(C(=O)NCC(C)CC(F)(F)F)c3n2)CC1` (racemic) [Example 270, Racemic-2-[(1-acryloyl-4-methylpiperidin-4-yl)amino]-N-(4,4,4-trifluoro-2-methylbutyl)-5H-pyrrolo[2,3-b]pyrazine-7-carboxamide]: the IC50 against JAK3 enzyme [1] turned out to be 0.526 nM; against JAK3 enzyme [2], 63 nM; in test [3], 670 nM.

For the molecule `C=CC(=O)N1C[C@@H](CO)C[C@@H](Nc2ncnc3[nH]ccc23)C1` (racemic) [Example 97, racemic-1-((3R,5S)-3-((7H-pyrrolo[2,3-d]pyrimidin-4-yl)amino)-5-(hydroxymethyl)piperidin-1-yl)prop-2-en-1-one], the IC50 against JAK3 enzyme [1] amounted to 1.71 nM; at JAK3 enzyme [2] it was 187 nM; in test [3], 1060 nM.

As for `C=CC(=O)N1CCC(C)(Nc2cnc3[nH]cc(C(=O)NCC(C)(F)F)c3n2)CC1` [Example 296, 2-[(1-acryloyl-4-methylpiperidin-4-yl)amino]-N-(2,2-difluoropropyl)-5H-pyrrolo[2,3-b]pyrazine-7-carboxamide], the IC50 is 0.519 nM at JAK3 enzyme [1], 57 nM on JAK3 enzyme [2] and 609 nM in test [3].

As to `C=CC(=O)N1CCC(C)(Nc2cnc3[nH]cc(C(=O)NCCCC(F)(F)F)c3n2)CC1` [Example 333, 2-[(1-acryloyl-4-methylpiperidin-4-yl)amino]-N-(4,4,4-trifluorobutyl)-5H-pyrrolo[2,3-b]pyrazine-7-carboxamide], the results for the IC50 (against JAK3 enzyme [1]; on JAK3 enzyme [2]; in test [3]) were 0.307 nM, 44 nM and 774 nM, respectively.

`C=CC(=O)N1CC[C@H](Nc2cnc3[nH]cc(C(=O)NC4CC(F)(F)C4)c3n2)[C@H](OC)C1` [Example 277, 2-{[(3R,4S)-1-acryloyl-3-methoxypiperidin-4-yl]amino}-N-(3,3-difluorocyclobutyl)-5H-pyrrolo[2,3-b]pyrazine-7-carboxamide]: the IC50 against JAK3 enzyme [1] stood at 0.59 nM; against JAK3 enzyme [2], 155 nM; in test [3], 2320 nM.

As to `C=CC(=O)N1CCC(Nc2cnc3[nH]cc(C(=O)NCC(C)CC(F)(F)F)c3n2)CC1C` (racemic) [Example 310, Racemic-2-[(1-acryloyl-2-methylpiperidin-4-yl)amino]-N-(4,4,4-trifluoro-2-methylbutyl)-5H-pyrrolo[2,3-b]pyrazine-7-carboxamide], the results for the IC50 (against JAK3 enzyme [1]; against JAK3 enzyme [2]; in test [3]) were 2.08 nM, 170 nM and 1200 nM, respectively.

In the case of `C=CC(=O)N1CCN(c2cnc3[nH]cc(C(=O)N[C@@H](CC)COC)c3n2)CC1(C)C` [Example 135, 2-(4-acryloyl-3,3-dimethylpiperazin-1-yl)-N-[(2S)-1-methoxybutan-2-yl]-5H-pyrrolo[2,3-b]pyrazine-7-carboxamide], the IC50 against JAK3 enzyme [1] stood at 1.49 nM; on JAK3 enzyme [2], 168 nM; in test [3], 759 nM.

For `C=CC(=O)N1CC[C@@H](Nc2cnc3[nH]cc(C(=O)NCC(C)(C)C)c3n2)[C@@H](OC)C1` [Example 300, 2-{[(3S,4R)-1-acryloyl-3-methoxypiperidin-4-yl]amino}-N-(2,2-dimethylpropyl)-5H-pyrrolo[2,3-b]pyrazine-7-carboxamide], the IC50 came out at 0.69 nM against JAK3 enzyme [1], 92 nM against JAK3 enzyme [2] and 700 nM in test [3].

As to `C=CC(=O)N1CC[C@@H](Nc2cnc3[nH]cc(C(=O)NCC)c3n2)[C@H](OC)C1` (racemic) [Example 25, Trans-racemic-2-{[1-acryloyl-3-methoxypiperidin-4-yl]amino}-N-ethyl-5H-pyrrolo[2,3-b]pyrazine-7-carboxamide], the values for the IC50 (at JAK3 enzyme [1]; at JAK3 enzyme [2]; in test [3]) were 1.33 nM, 92 nM and 1600 nM, respectively.

For `C=CC(=O)N1CC[C@@H](Nc2cnc3[nH]cc(C(=O)NCC4CC(F)(F)C4)c3n2)[C@@H](OC)C1` [Example 309, 2-{[(3S,4R)-1-acryloyl-3-methoxypiperidin-4-yl]amino}-N-[(3,3-difluorocyclobutyl)methyl]-5H-pyrrolo[2,3-b]pyrazine-7-carboxamide], the results for the IC50 (at JAK3 enzyme [1]; against JAK3 enzyme [2]; in test [3]) were 0.898 nM, 59 nM and 526 nM, respectively.

On to `C=CC(=O)N1CCC(C)(Oc2cnc3[nH]cc(C(=O)NCC)c3n2)CC1` [Example 61, 2-[(1-acryloyl-4-methylpiperidin-4-yl)oxy]-N-ethyl-5H-pyrrolo[2,3-b]pyrazine-7-carboxamide], for which the IC50 against JAK3 enzyme [1] worked out at 3.39 nM; on JAK3 enzyme [2], 564 nM; in test [3], 2170 nM.

Take `C=CC(=O)N1CCN(c2cnc3[nH]cc(C(=O)NCC4CC(F)(F)C4)c3n2)CC1` [Example 276, 2-(4-acryloylpiperazin-1-yl)-N-[(3,3-difluorocyclobutyl)methyl]-5H-pyrrolo[2,3-b]pyrazine-7-carboxamide]: the results for the IC50 (at JAK3 enzyme [1]; at JAK3 enzyme [2]; in test [3]) were 0.479 nM, 111 nM and 623 nM, respectively.

Consider `C=CC(=O)N1CCC(Oc2cnc3[nH]cc(C(=O)NCC4(O)CCC4)c3n2)CC1` [Example 203, 2-[(1-acryloylpiperidin-4-yl)oxy]-N-[(1-hydroxycyclobutyl)methyl]-5H-pyrrolo[2,3-b]pyrazine-7-carboxamide], for which the IC50 against JAK3 enzyme [1] worked out at 2.82 nM; on JAK3 enzyme [2] it was 370 nM; in test [3] it was 4460 nM.
